Source: publication PMC7073886, “Structure–Bioactivity Relationships of Lapatinib Derived Analogs against Schistosoma mansoni” (ACS Medicinal Chemistry Letters, 2020)
In brackets after ≈: the same amount, converted by molar mass. Read-outs that look alike come from different tables or passages of the source.

Key:
HepG2 cells = test: Drug toxicity to HepG2 cells (MTT); type: cell-based; settings: for increase in toxicity against HepG2 cells compared with 3: relative to 3; for HepG2 TC50: HepG2 cells, 48 hours incubation, MTT
Rat hepatocyte Clint = type: in vitro ADME; settings: rat hepatocytes, intrinsic clearance; for hepatocyte CLint: read-out: RH CLint
adult S. mansoni = test: Phenotypic screen of adult S. mansoni worms, severity scores and descriptors; type: cell-based, Schistosoma mansoni; settings: for Severity Scores (10 μM) 1 h / Severity Scores (10 μM) 5 h / Severity Scores (10 μM) 24 h / Severity Scores (10 μM) 48 h / Descriptors (10 µM) 1 h / Descriptors (10 µM) 5 h / Descriptors (10 µM) 24 h / Descriptors (10 µM) 48 h: adult S. mansoni; for Severity Scores (10 μM) 1 h / Severity Scores (10 μM) 5 h / Severity Scores (10 μM) 24 h / Severity Scores (10 μM) 48 h: scale 0 (no activity) to 4 (maximal activity); for bioactivity against adult S. mansoni: adult schistosomes; for Severity Scores (10 μM) 1 h / Severity Scores (10 μM) 5 h / Severity Scores (10 μM) 24 h / Severity Scores (10 μM) 48 h / bioactivity against adult S. mansoni: 10 μM; for Descriptors (10 µM) 1 h / Descriptors (10 µM) 5 h / Descriptors (10 µM) 24 h / Descriptors (10 µM) 48 h: phenotypic descriptors
Summary of the method: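 Adult S. mansoni (NMRI isolate, ≥42 days old) were co-incubated with compounds and changes in motility, density, shape and adherence recorded visually over time and concentration. Descriptors converted to severity scores from 0 (no activity) to 4 (maximal).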

[1] = Human liver microsomal Clint; type: in vitro ADME; settings: for microsomal CLint / HLM Clint: human liver microsomes, intrinsic clearance; for microsomal CLint: read-out: HLM Clint
[2] = Aqueous pH 7.4 solubility; type: physicochemical; settings: for solubility: phosphate buffer pH 7.4, 25 °C, 20-24 h, read-out: aq sol (aqueous solubility)
[3] = Human plasma protein binding (equilibrium dialysis); type: in vitro ADME; settings: for fraction unbound at 10 µM: pH 7.4, 37 °C; for human PPB (plasma protein binding): 10 µM
[4] = Log D7.4 shake-flask octanol-water; type: physicochemical; settings: pH 7.4
[5] = aqueous buffer, thermodynamic from solid
[6] = read-out: human PPB (plasma protein binding) (converted)

Row | SMILES | hepatocyte CLint (Rat hepatocyte Clint) | microsomal CLint [1] | logD [4] | RH CLint (Rat hepatocyte Clint) | HLM Clint [1] | solubility [2] | human PPB (plasma protein binding) ([3]; 37 °C) | LogD 7.4 [4] | Severity Scores (10 μM) 1 h (adult S. mansoni) | Severity Scores (10 μM) 5 h (adult S. mansoni) | Severity Scores (10 μM) 24 h (adult S. mansoni) | Severity Scores (10 μM) 48 h (adult S. mansoni) | bioactivity against adult S. mansoni (adult S. mansoni) | HepG2 TC50 (HepG2 cells) | Descriptors (10 µM) 1 h (adult S. mansoni) | Descriptors (10 µM) 5 h (adult S. mansoni) | Descriptors (10 µM) 24 h (adult S. mansoni) | Descriptors (10 µM) 48 h (adult S. mansoni) | other results
1 | Cc1cnc(Nc2ccnc3cc(-c4cnc(N5CCN(C)CC5)nc4)ccc23)cn1 [5a] | 150 µL/min/1e6 cells | 240 µL/min/mg | 3.6 |  |  |  |  |  | 1 | 4 | 4 | 4 | severe phenotypic response after just 5 h |  |  |  |  |  | increase in toxicity against HepG2 cells compared with 3 (HepG2 cells): greater than 1.9 fold; solubility [2, 5]: 13 µM (≈ 5.36 µg/mL); fraction unbound at 10 µM [3, 6]: 0.07
2 | c1cnc(Nc2ccnc3cc(-c4cnc(N5CCCNCC5)nc4)ccc23)cn1 [4g] | 4 µL/min/1e6 cells | 19 µL/min/mg | 1.8 |  |  |  |  |  | 0 | 0 | 0 | 0 | bioactivity of this series was not observed |  | none | none | none | none | solubility [2, 5]: 53 µM (≈ 21.1 µg/mL); fraction unbound at 10 µM [3, 6]: 0.37
3 | COc1ccc(NC(=O)c2ccc(-c3cccc(N4CCOCC4)c3)cc2N)cc1Cl [7e] | 4.4 µL/min/1e6 cells | 59 µL/min/mg | 3.6 |  |  |  |  |  | 0 | 0 | 2 | 2 | bioactivity after 24 h |  | none | none | S, on sides |  | solubility [2, 5]: 0.6 µM (≈ 0.263 µg/mL); fraction unbound at 10 µM [3, 6]: < 0.01
4 | CN1CCCN(S(=O)(=O)c2ccc(-c3ccc4c(Nc5ccc(Cl)cn5)ccnc4c3)cc2)CC1 [5f] | 30 µL/min/1e6 cells | 300 µL/min/mg | 4.5 |  |  |  |  |  | 2 | 2 | 2 | 2 | moderate bioactivity recorded after 1 h |  |  | S, on sides | Dark, S | Dark, S | solubility [2, 5]: 4 µM (≈ 2.03 µg/mL); fraction unbound at 10 µM [3, 6]: < 0.01
5 | CN1CCCN(c2ncc(-c3ccc4c(Nc5ccncn5)ccnc4c3)cn2)CC1 [5c] | 82 µL/min/1e6 cells | 74 µL/min/mg | 2.2 |  |  |  |  |  | 0 | 0 | 0 | 0 | complete loss in activity |  | none | none | none | none | solubility [2, 5]: 930 µM (≈ 384 µg/mL); fraction unbound at 10 µM [3, 6]: 0.34
6 | Cc1cc2c(Nc3cnccn3)ccnc2cc1-c1cnc(N2CCCN(C)CC2)nc1 [8b] | 42 µL/min/1e6 cells |  | 2.5 |  |  |  |  |  | 4 | 4 | 4 | 4 | severe phenotypic response recorded after 1 h |  |  |  |  |  | clearance increase compared to 8a ([1]; relative to 8a): 2 fold; improvement in solubility compared to 8a ([2]; relative to 8a): > 33,500 fold; fraction unbound ([3]; pH 7.4, 10 µM, 37 °C, read-out: human PPB (plasma protein binding) (converted)): 0.18
7 | Cc1cc2c(Nc3cnccn3)ccnc2cc1-c1cnc(N2CCN(C)CC2)nc1 [8a] |  |  | 3.3 |  |  |  |  |  | 2 |  | 4 | 4 | severe phenotypic response by 5 h |  | Unc, on sides |  |  |  | increase in toxicity against HepG2 cells compared with 3 (HepG2 cells): greater than 5 fold; decrease in aqueous solubility compared with 3 ([2]; relative to 3): > 2200 fold

Further lines, with some results ahead:

Row | hepatocyte CLint (Rat hepatocyte Clint) | microsomal CLint [1] | logD [4] | RH CLint (Rat hepatocyte Clint) | HLM Clint [1] | solubility [2] | human PPB (plasma protein binding) ([3]; 37 °C) | LogD 7.4 [4] | SMILES | Severity Scores (10 μM) 1 h (adult S. mansoni) | Severity Scores (10 μM) 5 h (adult S. mansoni) | Severity Scores (10 μM) 24 h (adult S. mansoni) | Severity Scores (10 μM) 48 h (adult S. mansoni) | bioactivity against adult S. mansoni (adult S. mansoni) | HepG2 TC50 (HepG2 cells) | Descriptors (10 µM) 1 h (adult S. mansoni) | Descriptors (10 µM) 5 h (adult S. mansoni) | Descriptors (10 µM) 24 h (adult S. mansoni) | Descriptors (10 µM) 48 h (adult S. mansoni) | other results
8 |  |  |  | 12 µL/min/10^6 cells | 48 μL/min/mg protein | 990 µM (≈ 408 µg/mL) | 81% | 2.5 | CN1CCCN(c2ncc(-c3ccc4nccc(Nc5cnccn5)c4c3)cn2)CC1 [S3i] | 0 | 0 | 0 |  |  | > 37 µM | none | none | none |  | 
9 |  |  |  | 32 µL/min/10^6 cells | 210 μL/min/mg protein | 1.4 µM (≈ 0.627 µg/mL) | 96% | 3.3 | O=S(=O)(c1ccc(-c2ccc3nccc(Nc4ccncn4)c3c2)cc1)N1CCOCC1 [S3a] | 0 | 0 | 0 | 0 |  | > 34 µM | none | none | none | none | 
10 |  |  |  | 7.6 µL/min/10^6 cells | 6 μL/min/mg protein | 11 µM (≈ 4.46 µg/mL) |  | 1.7 | C[S+]([O-])CCNc1ncc(-c2ccc3c(Nc4cnccn4)ccnc3c2)cn1 (stereo not drawn) [S2b] | 0 | 0 | 0 |  |  | > 37 µM | none | none | none |  | 
11 |  |  |  | 10 µL/min/10^6 cells | 28 μL/min/mg protein | 870 µM (≈ 406 µg/mL) | 73% | 2.2 | O=S(=O)(c1ccc(-c2ccc3nccc(NCCN4CCCC4)c3c2)cc1)N1CCOCC1 [S3e] | 0 | 0 | 1 | 3 |  | 9.2 µM | none | none |  |  | 
12 |  |  |  | 19 µL/min/10^6 cells | 87 μL/min/mg protein | 910 µM (≈ 375 µg/mL) | 61% | 2.2 | CN1CCCN(c2ncc(-c3ccc4nccc(Nc5ccncn5)c4c3)cn2)CC1 [S3j] | 0 | 0 | 0 |  |  | > 37 µM | none | none | none |  | 
13 |  |  |  |  |  | 950 µM (≈ 361 µg/mL) | 63% | 1 | C[C@@H]1CNCCN1C(=O)c1ccc(-c2cccc(N3CCOCC3)c2)cc1N [S4d] | 0 | 0 | 0 | 0 |  | > 40 µM | none | none | none | none | 
14 | 14 µL/min/1e6 cells | 30 µL/min/mg |  |  |  |  |  |  | CN1CCCN(c2ccc(Nc3ccc4c(Nc5cnccn5)ccnc4c3)cc2)CC1 [S3k] | 0 | 0 | 2 | 2 |  | 17 µM | none | none | S, on sides | S, on sides | 
15 |  |  |  | 55 µL/min/10^6 cells | 45 μL/min/mg protein | 630 µM (≈ 252 µg/mL) |  | 2.3 | CN(C)CCN(C)c1ncc(-c2ccc3c(Nc4cnccn4)ccnc3c2)cn1 [S2c] | 0 | 0 | 0 | 0 |  | > 38 µM | none | none | none | none | 
16 |  |  |  | 3.7 µL/min/10^6 cells | 23 μL/min/mg protein | 790 µM (≈ 369 µg/mL) | 58% |  | CN1CCC(Nc2ccnc3ccc(-c4ccc(S(=O)(=O)N5CCOCC5)cc4)cc23)CC1 [S3c] | 0 | 0 | 0 | 0 |  | 26 µM | none | none | none | none | 
17 |  |  |  | 2.6 µL/min/10^6 cells |  | 930 µM (≈ 381 µg/mL) | 42% | -0.4 | C[C@@H]1CNCCN1C(=O)c1ccc(-c2cnc(N3CCCN(C)CC3)nc2)cc1N [S4c] | 0 | 0 | 0 |  |  | > 37 µM | none | none | none |  | 
